In PMC6995600, “Effects of Synergistic Inhibition on α-glucosidase by Phytoalexins in Soybeans” (Biomolecules, 2019):
Read-outs that look alike come from different tables or passages of the source.

Key:
α-glucosidase = test system: α-glucosidase; set-up: method as in PMID 24083955; conditions: 2 μM; cited from earlier work
[1] = target: T1, α-Glucosidase (from baker’s yeast) (Saccharomyces cerevisiae, UniProt P53341); assay: Enzyme kinetics for α-glucosidase (Michaelis–Menten, Lineweaver–Burk, Dixon plot); type: biochemical; conditions: for Mode of Inhibition: Lineweaver–Burk plots
T1 construct: purchased Sigma-Aldrich #63231-63-0
Experimental: The enzyme reaction was performed according to the above reaction conditions with polyphenols at various concentrations (1–30 μM). pNPG (1 mM) was added with polyphenols in 96-well plates, and α-glucosidase (1 U/mL) was added to initiate the enzyme reaction. The absorbances for each concentration of pNPG were then obtained by spectrophotometry (Victor3, PerkinElmer, Waltham, MA, USA). The inhibition modes of the polyphenols were determined using Michaelis–Menten and Lineweaver–Burk equations [23, 24]. The inhibition constant Ki is an indication of the potency of an inhibitor and equals the concentration required to produce half-maximal inhibition and can be determined by a Dixon plot. […] The αKi value is the inhibitor constant when the inhibitor (I) occupies the enzyme–substrate (ES) complex.
To define the mode of inhibition of the polyphenols, enzyme kinetics were performed with designated concentrations of pNPG. The maximum velocity (Vmax) for α-glucosidase was calculated from the nonlinear regression curve with five different concentrations of substrate (Figure 2). To determine the inhibition modes, Lineweaver–Burk plots were constructed for each of the inhibition modes, and the most suitable mode was selected using SigmaPlot 10.0 software.
Meanwhile, the inhibitor constant Ki indicates the potency of an inhibitor and is expressed as the concentration required to produce half-maximal inhibition and is determined by a Dixon plot. The initial slope v was determined for each concentration of each polyphenol. The reciprocal velocity (1/v) versus the […] (for 0.25, 0.5, 1, and 2 mM pNPG) was plotted. A single regression line for each concentration of the substrate was obtained, and Ki was calculated from the intersection of the four lines.

[2] = target: T1, α-Glucosidase (from baker’s yeast); assay: biochemical
Experimental: Synergistic effects on α-glucosidase inhibition were measured using the same methods as above. […] We calculated the IC50 values of each polyphenol and the combinations, and we used the statistical differences of these values to assess synergistic effects.

[3] = target: T1, α-Glucosidase (from baker’s yeast); assay: biochemical; remark: listed apart in the source
Experimental: The activity of α-glucosidase was measured as described previously, with slight modifications. In brief, sodium phosphate buffer (0.1 M) was adjusted to 0.1 N HCl to pH 7.0 with a pH meter (Thermo Fisher Scientific Inc., Waltham, MA, USA). Solutions of pNPG (10 mM) and α-glucosidase (1 U/mL) were solubilized in 0.1 M sodium phosphate buffer (pH 7.0). All reagents were prepared shortly before use and warmed to 37 °C in a water bath (Il-shin Biobase, Pocheon, Korea). […] The substrate, pNPG (N1377, Sigma), was added into each well to a final concentration of 1 mM in a total volume of 200 μL, and 100 μL of α-glucosidase (1 U/mL) per well was then added. […] The absorbance values were plotted against time, and the rate (velocity) of product generation (α-glucosidase activity) was calculated from the linear range of the graph.

[4] = Substrate PNPG 0.125 mM, read-out: IC50
[5] = Substrate PNPG 0.25 mM, read-out: IC50
[6] = Substrate PNPG 0.5 mM, read-out: IC50
[7] = Substrate PNPG 1 mM, read-out: IC50
[8] = pNPG 1 mM, pH 7.0, 37 °C, read-out: half-maximal inhibitory concentrations (IC50)

T1 sequence (P53341 whole entry): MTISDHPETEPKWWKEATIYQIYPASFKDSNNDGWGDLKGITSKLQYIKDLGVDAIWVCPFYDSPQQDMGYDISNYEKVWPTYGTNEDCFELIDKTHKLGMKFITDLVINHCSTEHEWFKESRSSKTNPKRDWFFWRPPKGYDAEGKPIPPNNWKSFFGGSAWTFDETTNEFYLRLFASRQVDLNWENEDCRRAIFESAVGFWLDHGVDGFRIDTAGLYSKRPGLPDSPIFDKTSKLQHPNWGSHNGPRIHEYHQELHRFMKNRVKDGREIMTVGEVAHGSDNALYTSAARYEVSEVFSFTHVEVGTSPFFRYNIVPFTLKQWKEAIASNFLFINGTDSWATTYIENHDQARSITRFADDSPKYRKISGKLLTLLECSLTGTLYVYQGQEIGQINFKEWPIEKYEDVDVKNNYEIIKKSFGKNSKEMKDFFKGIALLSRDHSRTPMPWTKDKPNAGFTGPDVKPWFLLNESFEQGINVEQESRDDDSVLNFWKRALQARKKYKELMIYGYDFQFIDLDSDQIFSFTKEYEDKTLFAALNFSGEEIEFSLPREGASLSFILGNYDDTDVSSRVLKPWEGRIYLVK

Row | SMILES | Mode of Inhibition [1] | IC50 [2, 4] [µM] | IC50 [2, 5] [µM] | IC50 [2, 6] [µM] | IC50 [2, 7] [µM] | Ki [1] [µM] | IC50 [3, 8] [µM] | further results
1 | O=c1c2cc(O)ccc2oc2cc(O)cc(O)c12 [1,3,7-trihydroxyxanthone] | – | – | – | – | – | – | – | inhibition (α-glucosidase): approximately 15%
2 | C[C@H]1O[C@H](O[C@H]2[C@H](O)[C@@H](O)[C@@H](O[C@H]3[C@H](O)[C@@H](O)C(O)O[C@@H]3CO)O[C@@H]2CO)[C@H](O)[C@@H](O)[C@@H]1N[C@H]1C=C(CO)[C@@H](O)[C@H](O)[C@H]1O (some centres unmarked) [Acarbose, acarbose, reference compound] | Competitive | – | – | – | – | – | – | –
3 | O=c1c(-c2ccc(O)cc2)coc2cc(O)ccc12 [Daidzein, daidzein] | Uncompetitive | – | – | – | – | – | – | IC50 ([2]; IC50, Substrate PNPG 0.125 mM): 59.2 ± 6.1 µM; IC50 ([2]; IC50, Substrate PNPG 0.25 mM): 27.6 ± 2.93 µM; IC50 ([2]; IC50, Substrate PNPG 0.5 mM): 23.2 ± 1.04 µM; IC50 ([2]; IC50, Substrate PNPG 1 mM): 20.5 ± 1.82 µM; IC50 [3]: 20.2 ± 6.17 µM
4 | CC1(C)C=Cc2c(ccc3c2OC[C@@]2(O)c4ccc(O)cc4O[C@@H]32)O1 [Glyceollin, glyceollin] | Competitive | 16.6 ± 3.25 | 16.57 ± 0.15 | 19.1 ± 0.96 | 33.2 ± 3.97 | 19 ± 4.45 | 13.2 ± 2.31 | Mode of Inhibition ([1]; listed as glyceollin): competitive inhibition
5 | O=c1cc(-c2ccc(O)c(O)c2)oc2cc(O)cc(O)c12 [Luteolin, luteolin] | Mixed | 18.6 ± 1.2 | 14.82 ± 0.01 | 15.4 ± 1.99 | 19.5 ± 1.59 | 16.8 ± 9.6 | 11.9 ± 1.63 | –
